Results reported in US20020111274A1, “1-alkyl-3-[1-(substituted phenyl) benzotriazol-6-yl] uracils” (BASF Aktiengesellschaft, priority 2000, published 2002).

What was measured:
Parameters in all cases: scale not given here
[1] = tested on: IPOHE Morningglory, Ivyleaf; assay: Postemergence herbicidal evaluation, IPOHE; type: in vivo, Ipomoea hederacea, (L.) Jacq.; details: postemergence spray, rated about two-three weeks after treatment
How it was run: (§1)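 Visual injury rating ~2–3 wk post-spray; replicate tests averaged. Two-week-old seedlings; foliar spray at 40 psi; 0.006–0.400 kg ai/ha in 80/20 acetone/water + 1.0% methylated seed oil.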

[2] = tested on: TRZAWR Wheat, Winter, cv Riband; assay: Postemergence herbicidal evaluation, TRZAWR; type: in vivo, Triticum aestivum; details: postemergence spray, rated about two-three weeks after treatment
How it was run: as §1

ECHOG Barnyardgrass [3] = assay: Preemergence herbicidal evaluation, ECHOG; type: in vivo, Echinochloa crus-galli, (L.) Beau; details: preemergence
How it was run: (§2)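 Preemergence soil spray: aqueous acetone, ~0.013–0.800 kg/ha, applied right after sowing (seed/potting-soil mix over ~1 in soil). Greenhouse, routine watering. Scored 4–5 wk post-treatment on a rating scale.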

ECHOG Barnyardgrass [4] = assay: Postemergence herbicidal evaluation, ECHOG; type: in vivo, Echinochloa crus-galli, (L.) Beau; details: postemergence spray, rated about two-three weeks after treatment
How it was run: as §1

GALAP Galium [5] = assay: Postemergence herbicidal evaluation, GALAP; type: in vivo, Galium aparine; details: postemergence spray, rated about two-three weeks after treatment
How it was run: as §1

CASOB Sicklepod [6] = assay: Preemergence herbicidal evaluation, CASOB; type: in vivo, Cassia obtusifolia, L.; details: preemergence
How it was run: as §2

AMBEL Ragweed, Common [7] = assay: Postemergence herbicidal evaluation, AMBEL; type: in vivo, Ambrosia artemisifolia, L.; details: postemergence spray, rated about two-three weeks after treatment
How it was run: as §1

GLXMAW Soybean, Williams [8] = assay: Preemergence herbicidal evaluation, GLXMAW; type: in vivo, Glycine max, (L.) Merr. cv Williams; details: preemergence
How it was run: as §2

SETVI Foxtail, Green [9] = assay: Preemergence herbicidal evaluation, SETVI; type: in vivo, Setaria viridis, (L.) Beau; details: preemergence
How it was run: as §2

[10] = tested on: CHEAL Lambsquarters, Common; assay: Preemergence herbicidal evaluation, CHEAL; type: in vivo, Chenopodium album, L.; details: preemergence
How it was run: as §2

[11] = tested on: IPOHE Morningglory, Ivyleaf; assay: Preemergence herbicidal evaluation, IPOHE; type: in vivo, Ipomoea hederacea, (L.) Jacq.; details: preemergence
How it was run: as §2

ABUTH Velvetleaf [12] = assay: Postemergence herbicidal evaluation, ABUTH; type: in vivo, Abutilon theophrasti, Medic.; details: postemergence spray, rated about two-three weeks after treatment
How it was run: as §1

ZEAMX Corn, Field [13] = assay: Preemergence herbicidal evaluation, ZEAMX; type: in vivo, Zea mays, L. (Sammel-Bezeichnung); details: preemergence
How it was run: as §2

ABUTH Velvetleaf [14] = assay: Preemergence herbicidal evaluation, ABUTH; type: in vivo, Abutilon theophrasti, Medic.; details: preemergence
How it was run: as §2

ZEAMX Corn, Field [15] = assay: Postemergence herbicidal evaluation, ZEAMX; type: in vivo, Zea mays, L. (Sammel-Bezeichnung); details: postemergence spray, rated about two-three weeks after treatment
How it was run: as §1

ORYSAT Rice, Tebonnet [16] = assay: Preemergence herbicidal evaluation, ORYSAT; type: in vivo, Oryza sativa, (L.); details: preemergence
How it was run: as §2

GALAP Galium [17] = assay: Preemergence herbicidal evaluation, GALAP; type: in vivo, Galium aparine; details: preemergence
How it was run: as §2

[18] = tested on: TRZAWR Wheat, Winter, cv Riband; assay: Preemergence herbicidal evaluation, TRZAWR; type: in vivo, Triticum aestivum; details: preemergence
How it was run: as §2

AMBEL Ragweed, Common [19] = assay: Preemergence herbicidal evaluation, AMBEL; type: in vivo, Ambrosia artemisifolia, L.; details: preemergence
How it was run: as §2

GLXMAW Soybean, Williams [20] = assay: Postemergence herbicidal evaluation, GLXMAW; type: in vivo, Glycine max, (L.) Merr. cv Williams; details: postemergence spray, rated about two-three weeks after treatment
How it was run: as §1

[21] = tested on: CHEAL Lambsquarters, Common; assay: Postemergence herbicidal evaluation, CHEAL; type: in vivo, Chenopodium album, L.; details: postemergence spray, rated about two-three weeks after treatment
How it was run: as §1

ORYSAT Rice, Tebonnet [22] = assay: Postemergence herbicidal evaluation, ORYSAT; type: in vivo, Oryza sativa, (L.); details: postemergence spray, rated about two-three weeks after treatment
How it was run: as §1

CASOB Sicklepod [23] = assay: Postemergence herbicidal evaluation, CASOB; type: in vivo, Cassia obtusifolia, L.; details: postemergence spray, rated about two-three weeks after treatment
How it was run: as §1

SETVI Foxtail, Green [24] = assay: Postemergence herbicidal evaluation, SETVI; type: in vivo, Setaria viridis, (L.) Beau; details: postemergence spray, rated about two-three weeks after treatment
How it was run: as §1

SMILES: C=CCOc1ccc(-n2nnc3cc(F)c(-n4c(=O)cc(C(F)(F)F)n(C)c4=O)cc32)c(C)c1 [Example 43]
- Postemergence herbicidal rating IPOHE ([1]; 0.008 kg/ha): 9.0
- Postemergence herbicidal rating IPOHE ([1]; 0.016 kg/ha): 9.0
- Postemergence herbicidal rating IPOHE ([1]; 0.032 kg/ha): 9.0
- Postemergence herbicidal rating IPOHE ([1]; 0.062 kg/ha): 9.0
- Postemergence herbicidal rating TRZAWR ([2]; 0.008 kg/ha): 3.0
- Postemergence herbicidal rating TRZAWR ([2]; 0.016 kg/ha): 3.0
- Postemergence herbicidal rating TRZAWR ([2]; 0.032 kg/ha): 3.0
- Postemergence herbicidal rating TRZAWR ([2]; 0.062 kg/ha): 3.0
- ECHCG herbicidal rating (ECHOG Barnyardgrass [3]; rate 0.016 kg/ha): 0.0
- ECHCG herbicidal rating (ECHOG Barnyardgrass [3]; rate 0.032 kg/ha): 0.0
- ECHCG herbicidal rating (ECHOG Barnyardgrass [3]; rate 0.062 kg/ha): 0.0
- ECHCG herbicidal rating (ECHOG Barnyardgrass [3]; rate 0.125 kg/ha): 1.0
- Postemergence herbicidal rating ECHCG (ECHOG Barnyardgrass [4]; 0.008 kg/ha): 1.0
- Postemergence herbicidal rating ECHCG (ECHOG Barnyardgrass [4]; 0.016 kg/ha): 1.0
- Postemergence herbicidal rating ECHCG (ECHOG Barnyardgrass [4]; 0.032 kg/ha): 1.0
- Postemergence herbicidal rating ECHCG (ECHOG Barnyardgrass [4]; 0.062 kg/ha): 2.0
- Postemergence herbicidal rating GALAP (GALAP Galium [5]; 0.008 kg/ha): 0.0
- Postemergence herbicidal rating GALAP (GALAP Galium [5]; 0.016 kg/ha): 0.0
- Postemergence herbicidal rating GALAP (GALAP Galium [5]; 0.032 kg/ha): 1.0
- Postemergence herbicidal rating GALAP (GALAP Galium [5]; 0.062 kg/ha): 1.0
- CASOB herbicidal rating (CASOB Sicklepod [6]; rate 0.016 kg/ha): 0.0
- CASOB herbicidal rating (CASOB Sicklepod [6]; rate 0.032 kg/ha): 0.0
- CASOB herbicidal rating (CASOB Sicklepod [6]; rate 0.062 kg/ha): 0.0
- CASOB herbicidal rating (CASOB Sicklepod [6]; rate 0.125 kg/ha): 0.0
- Postemergence herbicidal rating AMBEL (AMBEL Ragweed, Common [7]; 0.008 kg/ha): 1.0
- Postemergence herbicidal rating AMBEL (AMBEL Ragweed, Common [7]; 0.016 kg/ha): 7.0
- Postemergence herbicidal rating AMBEL (AMBEL Ragweed, Common [7]; 0.032 kg/ha): 7.0
- Postemergence herbicidal rating AMBEL (AMBEL Ragweed, Common [7]; 0.062 kg/ha): 9.0
- GLXMAW herbicidal rating (GLXMAW Soybean, Williams [8]; rate 0.016 kg/ha): 1.0
- GLXMAW herbicidal rating (GLXMAW Soybean, Williams [8]; rate 0.032 kg/ha): 1.0
- GLXMAW herbicidal rating (GLXMAW Soybean, Williams [8]; rate 0.062 kg/ha): 0.0
- GLXMAW herbicidal rating (GLXMAW Soybean, Williams [8]; rate 0.125 kg/ha): 1.0
- SETVI herbicidal rating (SETVI Foxtail, Green [9]; rate 0.016 kg/ha): 0.0
- SETVI herbicidal rating (SETVI Foxtail, Green [9]; rate 0.032 kg/ha): 1.0
- SETVI herbicidal rating (SETVI Foxtail, Green [9]; rate 0.062 kg/ha): 4.0
- SETVI herbicidal rating (SETVI Foxtail, Green [9]; rate 0.125 kg/ha): 7.0
- CHEAL herbicidal rating ([10]; rate 0.016 kg/ha): 9.0
- CHEAL herbicidal rating ([10]; rate 0.032 kg/ha): 9.0
- CHEAL herbicidal rating ([10]; rate 0.062 kg/ha): 9.0
- CHEAL herbicidal rating ([10]; rate 0.125 kg/ha): 9.0
- IPOHE herbicidal rating ([11]; rate 0.016 kg/ha): 0.0
- IPOHE herbicidal rating ([11]; rate 0.032 kg/ha): 0.0
- IPOHE herbicidal rating ([11]; rate 0.062 kg/ha): 0.0
- IPOHE herbicidal rating ([11]; rate 0.125 kg/ha): 0.0
- Postemergence herbicidal rating ABUTH (ABUTH Velvetleaf [12]; 0.008 kg/ha): 9.0
- Postemergence herbicidal rating ABUTH (ABUTH Velvetleaf [12]; 0.016 kg/ha): 9.0
- Postemergence herbicidal rating ABUTH (ABUTH Velvetleaf [12]; 0.032 kg/ha): 9.0
- Postemergence herbicidal rating ABUTH (ABUTH Velvetleaf [12]; 0.062 kg/ha): 9.0
- ZEAMX herbicidal rating (ZEAMX Corn, Field [13]; rate 0.016 kg/ha): 0.0
- ZEAMX herbicidal rating (ZEAMX Corn, Field [13]; rate 0.032 kg/ha): 0.0
- ZEAMX herbicidal rating (ZEAMX Corn, Field [13]; rate 0.062 kg/ha): 0.0
- ZEAMX herbicidal rating (ZEAMX Corn, Field [13]; rate 0.125 kg/ha): 2.0
- ABUTH herbicidal rating (ABUTH Velvetleaf [14]; rate 0.016 kg/ha): 0.0
- ABUTH herbicidal rating (ABUTH Velvetleaf [14]; rate 0.032 kg/ha): 1.0
- ABUTH herbicidal rating (ABUTH Velvetleaf [14]; rate 0.062 kg/ha): 9.0
- ABUTH herbicidal rating (ABUTH Velvetleaf [14]; rate 0.125 kg/ha): 8.0
- Postemergence herbicidal rating ZEAMX (ZEAMX Corn, Field [15]; 0.008 kg/ha): 4.0
- Postemergence herbicidal rating ZEAMX (ZEAMX Corn, Field [15]; 0.016 kg/ha): 5.0
- Postemergence herbicidal rating ZEAMX (ZEAMX Corn, Field [15]; 0.032 kg/ha): 5.0
- Postemergence herbicidal rating ZEAMX (ZEAMX Corn, Field [15]; 0.062 kg/ha): 5.0
- ORYSAT herbicidal rating (ORYSAT Rice, Tebonnet [16]; rate 0.016 kg/ha): 0.0
- ORYSAT herbicidal rating (ORYSAT Rice, Tebonnet [16]; rate 0.032 kg/ha): 0.0
- ORYSAT herbicidal rating (ORYSAT Rice, Tebonnet [16]; rate 0.062 kg/ha): 0.0
- ORYSAT herbicidal rating (ORYSAT Rice, Tebonnet [16]; rate 0.125 kg/ha): 0.0
- GALAP herbicidal rating (GALAP Galium [17]; rate 0.016 kg/ha): 0.0
- GALAP herbicidal rating (GALAP Galium [17]; rate 0.032 kg/ha): 0.0
- GALAP herbicidal rating (GALAP Galium [17]; rate 0.062 kg/ha): 0.0
- GALAP herbicidal rating (GALAP Galium [17]; rate 0.125 kg/ha): 0.0
- TRZAWR herbicidal rating ([18]; rate 0.016 kg/ha): 0.0
- TRZAWR herbicidal rating ([18]; rate 0.032 kg/ha): 0.0
- TRZAWR herbicidal rating ([18]; rate 0.062 kg/ha): 0.0
- TRZAWR herbicidal rating ([18]; rate 0.125 kg/ha): 1.0
- AMBEL herbicidal rating (AMBEL Ragweed, Common [19]; rate 0.016 kg/ha): 0.0
- AMBEL herbicidal rating (AMBEL Ragweed, Common [19]; rate 0.032 kg/ha): 0.0
- AMBEL herbicidal rating (AMBEL Ragweed, Common [19]; rate 0.062 kg/ha): 0.0
- AMBEL herbicidal rating (AMBEL Ragweed, Common [19]; rate 0.125 kg/ha): 0.0
- Postemergence herbicidal rating GLXMAW (GLXMAW Soybean, Williams [20]; 0.008 kg/ha): 5.0
- Postemergence herbicidal rating GLXMAW (GLXMAW Soybean, Williams [20]; 0.016 kg/ha): 5.0
- Postemergence herbicidal rating GLXMAW (GLXMAW Soybean, Williams [20]; 0.032 kg/ha): 5.5
- Postemergence herbicidal rating GLXMAW (GLXMAW Soybean, Williams [20]; 0.062 kg/ha): 5.5
- Postemergence herbicidal rating CHEAL ([21]; 0.008 kg/ha): 0.0
- Postemergence herbicidal rating CHEAL ([21]; 0.016 kg/ha): 3.0
- Postemergence herbicidal rating CHEAL ([21]; 0.032 kg/ha): 3.0
- Postemergence herbicidal rating CHEAL ([21]; 0.062 kg/ha): 4.0
- Postemergence herbicidal rating ORYSAT (ORYSAT Rice, Tebonnet [22]; 0.008 kg/ha): 2.5
- Postemergence herbicidal rating ORYSAT (ORYSAT Rice, Tebonnet [22]; 0.016 kg/ha): 2.0
- Postemergence herbicidal rating ORYSAT (ORYSAT Rice, Tebonnet [22]; 0.032 kg/ha): 2.0
- Postemergence herbicidal rating ORYSAT (ORYSAT Rice, Tebonnet [22]; 0.062 kg/ha): 3.0
- Postemergence herbicidal rating CASOB (CASOB Sicklepod [23]; 0.008 kg/ha): 0.0
- Postemergence herbicidal rating CASOB (CASOB Sicklepod [23]; 0.016 kg/ha): 0.0
- Postemergence herbicidal rating CASOB (CASOB Sicklepod [23]; 0.032 kg/ha): 0.0
- Postemergence herbicidal rating CASOB (CASOB Sicklepod [23]; 0.062 kg/ha): 3.0
- Postemergence herbicidal rating SETVI (SETVI Foxtail, Green [24]; 0.008 kg/ha): 0.0
- Postemergence herbicidal rating SETVI (SETVI Foxtail, Green [24]; 0.016 kg/ha): 1.0
- Postemergence herbicidal rating SETVI (SETVI Foxtail, Green [24]; 0.032 kg/ha): 9.0
- Postemergence herbicidal rating SETVI (SETVI Foxtail, Green [24]; 0.062 kg/ha): 9.0
